This note sets out measurements from paper PMC10978636, “Hydroxy(phenyl)pyruvic acid reductase in Actaea racemosa L.: a putative enzyme in cimicifugic and fukinolic acid biosynthesis” (Planta, 2024).

The assay deals with ArH(P)PR. The experiment in a line: photometric NAD(P)H oxidation at […] nm, Michaelis-Menten fit. Type of assay: biochemical, Actaea racemosa. Particulars: 0.1 M KPi pH 7.5.
[1] abbreviates: co-substrate concentration not in main text (Suppl. Table S3).

For `O=C(O)C(=O)Cc1ccc(O)c(O)c1` [DHPP, 3,4-dihydroxyphenylpyruvic acid], the Km – broadly, the substrate concentration at which the rate is half of its maximum – (1 mM NADPH) is 24000 ± 4650 µM.
For the compound `NC(=O)C1=CN([C@@H]2O[C@H](COP(=O)(O)OP(=O)(O)OC[C@H]3O[C@@H](n4cnc5c(N)ncnc54)[C@H](O)[C@@H]3O)[C@@H](O)[C@H]2O)C=CC1` [NADH], the Km under setting [1] came out at 660 ± 90 µM.
For `NC(=O)C1=CN([C@@H]2O[C@H](COP(=O)(O)OP(=O)(O)OC[C@H]3O[C@@H](n4cnc5c(N)ncnc54)[C@H](OP(=O)(O)O)[C@@H]3O)[C@@H](O)[C@H]2O)C=CC1` [NADPH], the Km under setting [1] was 23 ± 4 µM.
Take `CC(=O)C(=O)O` [P, pyruvic acid]: the Km (1 mM NADPH) was 1890 ± 510 µM.
`O=C(O)C(=O)Cc1ccccc1` [PP, phenylpyruvic acid]: the Km (1 mM NADPH) turned out to be 5320 ± 2770 µM.
As for `O=C(O)C(=O)Cc1ccc(O)cc1` [pHPP, 4-hydroxyphenylpyruvic acid], the Km (1 mM NADPH) was determined as 1130 ± 120 µM.
As to `O=C(O)C(=O)CO` [β-HP, β-hydroxypyruvic acid], the Km (1 mM NADPH, error is SEM, substrate inhibition above 1 mM) is 260 ± 120 µM.
